Measured values reported in ChEMBL document CHEMBL1201862, “PubChem BioAssay data set” (2004).
Active and inactive are the calls of the source.

Legend:
HEK293 [1] = assay: Fluorescence-based counterscreen for potentiators or agonists of NPY-Y1: cell-based high-throughput dose response assay for inhibitors of cyclic nucleotide gated ion channel (CNGC) activity. In this assay, the parental HEK293 cell line transfected with a cyclic-nucleotide gated ion channel (CNGC)-based cAMP sensor is used to measure inhibition of isoproterenol-induced CNGC …; type: functional; conditions: Homo sapiens
[2] = biological target: T1, Neuropeptide Y receptor type 2 (Homo sapiens, UniProt P49146); assay: Fluorescence-based counterscreen for agonists of NPY-Y1: cell-based high-throughput dose response assay for agonists of NPY-Y2.; type: functional
T1 sequence (P49146 whole entry): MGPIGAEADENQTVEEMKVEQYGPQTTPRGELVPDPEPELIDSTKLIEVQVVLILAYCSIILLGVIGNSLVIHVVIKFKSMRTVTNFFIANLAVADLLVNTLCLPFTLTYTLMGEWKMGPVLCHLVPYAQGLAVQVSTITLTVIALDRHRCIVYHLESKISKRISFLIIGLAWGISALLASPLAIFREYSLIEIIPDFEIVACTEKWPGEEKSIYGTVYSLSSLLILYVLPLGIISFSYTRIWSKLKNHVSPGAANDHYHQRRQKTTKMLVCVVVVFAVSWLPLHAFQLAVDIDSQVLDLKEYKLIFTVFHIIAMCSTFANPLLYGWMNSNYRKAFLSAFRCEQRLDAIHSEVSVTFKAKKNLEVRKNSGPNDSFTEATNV

[3] = biological target: T2, Neuropeptide Y receptor type 1 (Homo sapiens, UniProt P25929); assay: Fluorescence-based dose response cell-based high-throughput screening assay for agonists of NPY-Y1. [Related pubchem assays: 1697 (Screening assay (NPY-Y1 agonists).), 1359 (Screening assay (NPY-Y2 potentiators or agonists).), 1304 (Screening assay (NPY-Y1 potentiators or agonists).), 1704 (Screening assay (CNGC inhibitors).), 1791 (Summary AID.)]; type: functional
T2 sequence (P25929 whole entry): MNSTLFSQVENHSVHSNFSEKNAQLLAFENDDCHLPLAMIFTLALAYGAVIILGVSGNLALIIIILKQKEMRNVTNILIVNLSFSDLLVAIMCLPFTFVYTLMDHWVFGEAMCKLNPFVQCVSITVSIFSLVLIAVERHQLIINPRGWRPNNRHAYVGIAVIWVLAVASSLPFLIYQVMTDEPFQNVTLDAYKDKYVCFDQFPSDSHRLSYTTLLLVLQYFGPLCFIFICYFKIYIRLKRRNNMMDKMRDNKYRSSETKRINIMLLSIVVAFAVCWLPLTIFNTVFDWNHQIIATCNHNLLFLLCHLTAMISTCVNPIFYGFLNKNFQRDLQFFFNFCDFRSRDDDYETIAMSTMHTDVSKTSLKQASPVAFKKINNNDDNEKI

Cytochrome P450 2C9 = Cytochrome P450 2C9 (Homo sapiens, UniProt P11712); conditions: Potency
Sequence of Cytochrome P450 2C9 (P11712 whole entry): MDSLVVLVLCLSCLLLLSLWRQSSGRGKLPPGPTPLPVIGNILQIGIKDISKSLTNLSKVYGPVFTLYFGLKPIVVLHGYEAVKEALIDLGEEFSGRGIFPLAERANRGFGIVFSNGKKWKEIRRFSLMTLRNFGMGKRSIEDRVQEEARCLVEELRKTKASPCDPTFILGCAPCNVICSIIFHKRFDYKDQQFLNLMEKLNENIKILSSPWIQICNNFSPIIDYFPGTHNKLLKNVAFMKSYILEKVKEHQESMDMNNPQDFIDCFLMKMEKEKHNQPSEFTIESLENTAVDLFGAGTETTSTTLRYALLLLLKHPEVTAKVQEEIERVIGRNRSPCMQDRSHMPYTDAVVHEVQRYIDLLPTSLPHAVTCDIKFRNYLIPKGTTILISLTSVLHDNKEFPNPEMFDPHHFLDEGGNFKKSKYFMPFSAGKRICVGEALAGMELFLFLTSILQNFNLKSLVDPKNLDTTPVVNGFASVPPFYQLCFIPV

cells [4] = type: functional
[5] = M. tuberculosis H37Rv growth inhibitors, H37Rv strain (AID 1626); type: functional
[6] = biological target: Mothers against decapentaplegic homolog 3 (Homo sapiens, UniProt P84022); assay: Smad3 binding inhibitors, lysate ELISA, dose response, cell lysate, secondary confirmation, chemiluminescent ELISA, HEK293 lysate (AID 1058); type: functional
Sequence of Mothers against decapentaplegic homolog 3 (P84022 whole entry): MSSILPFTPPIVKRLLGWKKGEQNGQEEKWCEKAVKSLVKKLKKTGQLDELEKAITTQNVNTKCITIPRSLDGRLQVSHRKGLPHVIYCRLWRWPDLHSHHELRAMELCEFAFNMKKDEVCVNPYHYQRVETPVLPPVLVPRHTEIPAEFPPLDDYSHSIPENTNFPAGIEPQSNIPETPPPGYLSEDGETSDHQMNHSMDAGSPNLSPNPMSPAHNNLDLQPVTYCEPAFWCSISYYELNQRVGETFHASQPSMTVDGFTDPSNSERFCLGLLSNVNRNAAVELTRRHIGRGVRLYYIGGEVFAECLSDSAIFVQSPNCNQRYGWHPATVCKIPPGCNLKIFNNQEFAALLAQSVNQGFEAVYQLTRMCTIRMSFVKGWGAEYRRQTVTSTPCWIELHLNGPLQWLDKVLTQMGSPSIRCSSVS

[7] = biological target: T2, Neuropeptide Y receptor type 1; assay: Fluorescence-based counterscreen for potentiators or agonists of NPY-Y2: cell-based high-throughput dose response assay for potentiators or agonists of NPY-Y1.; type: functional
[8] = biological target: T2, Neuropeptide Y receptor type 1; assay: Fluorescence-based counterscreen for agonists of NPY-Y2: cell-based high-throughput dose response assay for agonists of NPY-Y1.; type: functional
HEK293 [9] = assay: Fluorescence-based counterscreen for potentiators or agonists of NPY-Y2: cell-based high-throughput dose response assay to identify inhibitors of cyclic nucleotide gated ion channel (CNGC) activity. In this assay, the parental HEK293 cell line transfected with a cyclic-nucleotide gated ion channel (CNGC)-based cAMP sensor is used to measure inhibition of isoproterenol-induced CNGC activity by test compound.; type: functional; conditions: Homo sapiens
[10] = biological target: T1, Neuropeptide Y receptor type 2; assay: Fluorescence-based cell-based high-throughput dose response assay for agonists of NPY-Y2. [Related pubchem assays: 1703 (Screening assay (CNGC inhibitors).), 1359 (Screening assay (NPY-Y2 potentiators or agonists).), 1304 (Screening assay (NPY-Y1 potentiators or agonists).), 1710 (Screening assay (NPY-Y2 agonists).), 1791 (Summary AID.)]; type: functional
[11] = biological target: T1, Neuropeptide Y receptor type 2; assay: Fluorescence-based cell-based high-throughput dose response assay for potentiators or agonists of NPY-Y2. [Related pubchem assays: 1539 (Screening assay (NPY-Y2 potentiators or agonists).), 1703 (Screening assay (CNGC inhibitors).), 1359 (Screening assay (NPY-Y2 potentiators or agonists).), 1304 (Screening assay (NPY-Y1 potentiators or agonists).) …; type: functional
[12] = biological target: T3, Carboxy-terminal domain RNA polymerase II polypeptide A small phosphatase 1 (Homo sapiens, UniProt Q9GZU7); assay: inhibitors of CTDSP1, concentration-response testing, biochemical assay, absorbance-based, actives from ultra-high-throughput screening (AID 540297); type: functional
T3 sequence (Q9GZU7 whole entry): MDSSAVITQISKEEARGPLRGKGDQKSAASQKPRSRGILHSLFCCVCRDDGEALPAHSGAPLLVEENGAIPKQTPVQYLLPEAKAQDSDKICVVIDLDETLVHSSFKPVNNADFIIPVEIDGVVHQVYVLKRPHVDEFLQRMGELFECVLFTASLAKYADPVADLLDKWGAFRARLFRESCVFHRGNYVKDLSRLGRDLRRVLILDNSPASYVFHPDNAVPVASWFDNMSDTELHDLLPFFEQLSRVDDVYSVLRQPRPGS

[13] = biological target: Induced myeloid leukemia cell differentiation protein Mcl-1 (Homo sapiens, UniProt Q07820); type: functional
Sequence of Induced myeloid leukemia cell differentiation protein Mcl-1 (Q07820 whole entry): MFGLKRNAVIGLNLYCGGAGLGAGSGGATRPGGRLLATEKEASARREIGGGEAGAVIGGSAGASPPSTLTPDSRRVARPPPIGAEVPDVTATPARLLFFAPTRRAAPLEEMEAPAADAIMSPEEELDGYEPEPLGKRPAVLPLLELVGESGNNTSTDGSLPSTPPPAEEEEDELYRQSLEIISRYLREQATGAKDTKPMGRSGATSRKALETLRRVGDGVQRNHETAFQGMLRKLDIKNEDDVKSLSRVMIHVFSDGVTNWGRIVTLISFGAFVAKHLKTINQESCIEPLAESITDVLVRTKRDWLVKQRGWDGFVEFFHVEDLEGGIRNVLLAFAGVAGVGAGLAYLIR

NS3 = NS3 (Hepatitis C virus, UniProt A3EZJ3); assay: PubChem AID 2173; set-up: species or system Hepacivirus hominis
Sequence of NS3 (A3EZJ3 whole entry): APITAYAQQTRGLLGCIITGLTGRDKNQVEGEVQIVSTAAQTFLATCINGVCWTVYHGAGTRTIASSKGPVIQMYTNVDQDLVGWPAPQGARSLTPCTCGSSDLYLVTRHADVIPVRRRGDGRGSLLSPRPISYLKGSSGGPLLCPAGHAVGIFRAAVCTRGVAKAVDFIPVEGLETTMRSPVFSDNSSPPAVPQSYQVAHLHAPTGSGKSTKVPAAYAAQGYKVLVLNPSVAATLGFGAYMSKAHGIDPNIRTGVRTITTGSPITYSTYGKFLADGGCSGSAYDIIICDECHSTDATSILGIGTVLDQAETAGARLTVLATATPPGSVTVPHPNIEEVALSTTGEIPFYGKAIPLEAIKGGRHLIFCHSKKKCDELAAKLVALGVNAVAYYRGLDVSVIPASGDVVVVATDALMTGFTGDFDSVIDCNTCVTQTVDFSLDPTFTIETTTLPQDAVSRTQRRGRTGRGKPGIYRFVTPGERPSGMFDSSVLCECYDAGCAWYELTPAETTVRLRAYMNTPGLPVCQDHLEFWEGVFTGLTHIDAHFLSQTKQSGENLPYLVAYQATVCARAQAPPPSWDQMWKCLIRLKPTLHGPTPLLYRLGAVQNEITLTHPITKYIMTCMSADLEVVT

[14] = Artemis endonuclease inhibitor potency, dose response, biochemical, fluorescence intensity (AID 720701); type: functional;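 further: Artemis endonuclease enzyme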
[15] = cytotoxicity toward DRD oncogenic fibroblasts, dose response, cell-based, non-viral oncogenic, luminescence (AID 1934); type: functional; conditions: Homo sapiens
BJ [16] = assay: cytotoxicity toward Ras-transformed BJeLR fibroblasts, dose response, cell-based, alamar blue fluorescence, cherrypicked samples (AID 2631); type: functional; conditions: Homo sapiens;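 further: confirmatory dose-response assay in RAS-dependent BJ fibroblasts engineered with TERT, LT and ST, with cytotoxicity read by fluorescence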
[17] = inhibitors of firefly luciferase expression or activity, dose response, H4 neuroglioma cells, luminescence (AID 1990); type: functional, cell-based
[18] = inhibitors of SNCA 5'UTR-driven reporter translation, confirmation, H4 neuroglioma cells, luminescence (AID 1988); type: functional, cell-based
cells [19] = type: functional, cell-based
[20] = luciferase reporter signal reduction – luminescence, H4-C neuroglioblastoma cells, dose response (AID 2458); type: functional, cell-based;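 further: H4 neuroglioblastoma cells stably carrying a luciferase reporter gene fusion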
[21] = inhibitors of SNCA 5'UTR-driven translation, confirmation, luminescence, H4 neuroglioblastoma cells, dose confirmation (AID 2454); type: functional, cell-based;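 further: H4 neuroglioblastoma cells carrying an alpha-synuclein 5'UTR luciferase reporter; potency for inhibition of the luciferase signal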
BJ [22] = assay: cytotoxicity toward BJ-TERT-LT-ST fibroblasts, dose response, cell-based, RAS-independent, luminescence (AID 1935); type: functional; conditions: Homo sapiens;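 further: BJ fibroblasts immortalized with TERT plus LT and ST oncogenes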
[23] = Luminescence Cell-Based Dose Response HTS to Identify Inhibitors of 5'UTR Stem-Loop Driven Prion Protein mRNA Translation in H4 Neuroglioblastoma Cells. [Related pubchem assays: 1827 (Project Summary), 1813 (Primary HTS)]; type: functional
BJ [24] = assay: cells; type: functional, cell-based; conditions: Homo sapiens
BJ [25] = assay: cytotoxicity toward BJ-TERT fibroblasts, dose response, cell-based, RAS-independent, luminescence (AID 1933); type: functional; conditions: Homo sapiens

CSc1nc(-c2ccco2)nn1C(=O)c1ccccc1Cl
IC50 (HEK293 [1]): > 35.4 µM (not active) | EC50 [2]: > 35.4 µM (not active) | EC50 [3]: > 35.4 µM (not active)

C=CCOC(=O)C(C(C)=O)C(NC(=O)OC)c1ccc(Cl)cc1 (configuration not stated)
AC50 (Cytochrome P450 2C9): 3.16 µM (inconclusive)

O=C(Nc1nc2ccccc2[nH]1)c1cccc([N+](=O)[O-])c1
IC50 (cells [4]): 4.91 µM (active) | IC50 [5]: > 100 µM (active)

COc1ccc(C(c2cc3c(cc2O)OCO3)N2CCCCC2)cc1OC (configuration not stated)
IC50 [6]: > 40 µM (not active)

CCN(CC)CC(O)Cn1c2ccccc2c2ccccc21 (configuration not stated)
EC50 [7]: > 35.4 µM (not active) | EC50 [8]: 12.5 µM (not active) | EC50 (HEK293 [9]): 1.49 µM (active) | EC50 [10]: 29.6 µM (not active) | EC50 [11]: > 35.4 µM (not active)

O=C(Nc1nc(-c2ccco2)c(-c2ccco2)s1)C1CC(=O)N(c2ccc3c(c2)OCCO3)C1 (configuration not stated)
IC50 [12]: 3.1 µM (active) | IC50 [13]: 4.4 µM (active) | IC50 (NS3): 26.3 µM (not active) | IC50 [14]: > 20 µM (inactive)

COc1ccc(S(=O)(=O)N2c3ccc(F)cc3CCC2C)cc1 (configuration not stated)
EC50 [15]: 0.776 µM (active) | EC50 (BJ [16]): 0.25 µM (active) | EC50 [17]: 1.8 µM (active) | EC50 [18]: < 0.1 µM (active) | EC50 (cells [19]): > 12 µM (inconclusive) | EC50 [20]: 0.757 µM (active) | EC50 [21]: 1.01 µM (active) | EC50 (BJ [22]): 0.716 µM (inconclusive) | EC50 [23]: < 0.1 µM (active) | EC50 (BJ [24]): 1.21 µM (inconclusive) | EC50 (BJ [25]): 0.675 µM (active)
